In US10745428B2, “Antiviral phosphodiamide prodrugs of tenofovir” (Merck Sharp & Dohme Corp., priority 2015, dated 2020):
Like-named read-outs stand apart in the source and are kept apart here.

Assays:
HIV-1 (H9/IIIB strain) = test: Multiple round HIV-1 infection assay (Viking assay), HIV-1 replication in MT4-GFP cells; type: cell-based; conditions: MT4-GFP cells infected with HIV-1 H9/IIIB
Protocol: The antiviral activity of the tenofovir prodrugs of the Examples herein was assessed in an assay that measures the rate of replication of HIV in cell culture, termed the Viking assay (VIral KINetics in Green cells) and performed as follows. HIV-1 replication was monitored using MT4-gag-GFP clone D3 (hereafter designated MT4-GFP; GFP is green fluorescent protein), which are MT-4 cells modified to harbor a GFP reporter gene, the expression of which is dependent on the HIV-1 expressed proteins tat and rev; see Wang Y-J et al., 2010J Virological Methods 165:230-237. Productive infection of an MT4-GFP cell with HIV-1 results in GFP expression approximately 24 h post-infection. MT4-GFP cells were maintained at 37° C./5% CO2/90% relative humidity in RPMI 1640 supplemented with 10% fetal bovine serum, 100 U/ml penicillin/streptomycin, and 400 μg/ml G418 to maintain the reporter gene. For infections, MT4-GFP cells were placed in the same medium lacking G418 and infected overnight with HIV-1 (H9/IIIB strain) virus at an approximate multiplicity of infection of 0.01 in the same incubation conditions. Cells were then washed and re-suspended in either RPMI 1640 supplemented with 10% or 50% normal human serum (NHS) at 1.6×10^5 cells/mL (10% NHS or 50% NHS, respectively). Compound plates were prepared by dispensing compounds dissolved in DMSO into wells of 384 well poly-D-lysine-coated plates (0.2 μl/well) using an ECHO acoustic dispenser. Each compound was tested in a 10-point serial 3-fold dilution (typical final concentrations: 8.4 μM-0.42 nM). Controls included no inhibitor (DMSO only) and a combination of three antiviral agents (efavirenz, indinavir, and an integrase strand transfer inhibitor at final concentrations of 4 μM each). Cells were added (50 μL/well) to compound plates and the infected cells were maintained at 37′C/5% CO2/90% relative humidity.
Infected cells were quantified at two time points, ˜48 h and ˜72 h post-infection, by counting the number of green cells in each well using an Acumen eX3 scanner. The increase in the number of green cells over ˜24 h period gives the reproductive ratio, R0, which is typically 5-15 and has been shown experimentally to be in logarithmic phase (data not shown). R0 is calculated for each well, and IC50s determined by non-linear 4-parameter curve fitting.

[1] = Prodrug stability assay in bio-relevant media (FaSSIF with Pancreatin), GI Tract stability; type: in vitro ADME; conditions: HPLC peak area of prodrug at 5 h divided by area at 0 h; 0.5 mg/mL Pancreatin in FaSSIF, 37° C.
Protocol: The following assay was employed to evaluate the stability of the prodrugs in simulated gastrointestinal tract conditions. Preparation of fasted state simulated intestinal fluid (FaSSIF) using Phares SIF Powder was carried out according to protocols from Phare Drug Delivery AG (Baselland, Switzerland). For sample preparation, 10 μL stock solutions (10 mM) of prodrug substance in DMSO was added to 990 μL of 0.5 mg/mL Pancreatin solution (Fisher CAS#8049-47-6) in FaSSIF. Two samples were prepared for each compound. If the sample was a clear solution, it was directly analyzed by HPLC. If the sample was not clear, the sample was diluted with 100% ACN, maintained at 37° C. and observed 5 h later. If the sample was clear, HPLC analysis was directly performed. If the sample was still not clear, the sample was diluted with 100% ACN and assayed by HPLC. All the samples were vortexed for 3 min and observed before injection. For the diluted samples, the area is multiplied by a factor when the data is analyzed. The analysis was carried out with an Agilent 1100 series HPLC with autosampler. The column was usually a Poroshell 120 EC-C18, 4.6×50 mm, 2.7 μm. The flow rate was 1.8 mL/min, and the injection volume was 5 or 10 μL. UV detection was in the range 210-400 nm. The mobile phase consisted of solvent A (water plus 10 mM tetrabutylammonium bromide) and solvent B (acetonitrile) with a gradient of 90% solvent A at 0 min, changing to 95% solvent B over 6 min, maintaining for 1.5 min, then reverting to 90% solvent A over 1.6 min. The HPLC peak area of the prodrug at 5 h was divided by the HPLC peak area of the prodrug at 0 h, to generate the % claimed parent ratio, which is summarized in Table 2. for GI Tract stability.

[2] = 10% normal human serum, read-out: Viking, IC50 (10% NHS)
[3] = 50% normal human serum, read-out: Viking, IC50 (50% NHS)
[4] = Human immunodeficiency virus 1, IIIB, 10% normal human serum, read-out: Viking, IC50 (10% NHS)
[5] = Human immunodeficiency virus 1, IIIB, 50% normal human serum, read-out: Viking, IC50 (50% NHS)

Structure (SMILES) | IC50 (HIV-1 (H9/IIIB strain); [2]) [nM] | IC50 (HIV-1 (H9/IIIB strain); [3]) [nM] | GI Tract stability [1] [%] | IC50 (HIV-1 (H9/IIIB strain); [4]) [nM] | IC50 (HIV-1 (H9/IIIB strain); [5]) [nM]
CCCCCCOC(=O)C(C)(C)NP(=O)(CO[C@H](C)Cn1cnc2c(N)ncnc21)N[C@H](C)C(=O)OC(C)C (single isomer, unassigned) [Example 2A] | 15.9 | 78 | 100 | – | –
CCCCCCOC(=O)C(C)(C)NP(=O)(CO[C@H](C)Cn1cnc2c(N)ncnc21)N[C@H](C)C(=O)OC(C)C (single isomer, unassigned) [Example 2B] | 1.3 | 5.2 | 94.2 | – | –
CCCCOC(=O)[C@@H](C)NP(=O)(CO[C@H](C)Cn1cnc2c(N)ncnc21)NC(C)(C)C(=O)OC(C)C (single isomer, unassigned) [Example 3B] | 3.8 | 20.5 | 95.6 | – | –
CCCCCOC(=O)C(C)(C)NP(=O)(CO[C@H](C)Cn1cnc2c(N)ncnc21)N[C@H](C)C(=O)OCCCC (single isomer, unassigned) [Example 9A] | 6.1 | 19.8 | 100 | – | –
CCCCCOC(=O)C(C)(C)NP(=O)(CO[C@H](C)Cn1cnc2c(N)ncnc21)N[C@H](C)C(=O)OCCCC (single isomer, unassigned) [Example 9B] | 1 | 4.2 | 73.9 | – | –
CCCCCCOC(=O)C(C)(C)NP(=O)(CO[C@H](C)Cn1cnc2c(N)ncnc21)N[C@H](C)C(=O)OCC(C)C (single isomer, unassigned) [Example 10B] | 0.7 | 2 | 66.8 | – | –
CCCCCCOC(=O)[C@@H](C)NP(=O)(CO[C@H](C)Cn1cnc2c(N)ncnc21)NC(C)(C)C(=O)OCCCCCC (single isomer, unassigned) [Example 13A] | – | – | 99.1 | 7.2 | 40.4
CCCCCCOC(=O)C(C)(C)NP(=O)(CO[C@H](C)Cn1cnc2c(N)ncnc21)N[C@H](C)C(=O)OC1CCCC1 (single isomer, unassigned) [Example 14B] | 0.6 | 2 | 47.2 | – | –
CCCCCCOC(=O)C(C)(C)NP(=O)(CO[C@H](C)Cn1cnc2c(N)ncnc21)N[C@H](C)C(=O)OC1CCCCC1 (single isomer, unassigned) [Example 15B] | 0.7 | 2.1 | 51.2 | – | –
CCCCCOC(=O)[C@@H](C)NP(=O)(CO[C@H](C)Cn1cnc2c(N)ncnc21)NC(C)(C)C(=O)OCCCCC (single isomer, unassigned) [Example 16B] | 0.9 | 4.2 | 97.8 | – | –
CCCCCOC(=O)C(C)(C)NP(=O)(CO[C@H](C)Cn1cnc2c(N)ncnc21)N[C@H](C)C(=O)OC(C)C (single isomer, unassigned) [Example 17A] | 15.9 | 78 | 100 | – | –
CCCCCOC(=O)C(C)(C)NP(=O)(CO[C@H](C)Cn1cnc2c(N)ncnc21)N[C@H](C)C(=O)OC(C)C (single isomer, unassigned) [Example 17B] | 1.3 | 5.2 | 94.2 | – | –
CC(C)OC(=O)C(C)(C)NP(=O)(CO[C@H](C)Cn1cnc2c(N)ncnc21)N[C@H](C)C(=O)OC1CCC1 (single isomer, unassigned) [Example 18B] | 11 | 25.8 | 97.4 | – | –
CCCCCOC(=O)C(C)(C)NP(=O)(CO[C@H](C)Cn1cnc2c(N)ncnc21)N[C@H](C)C(=O)OC1CCC1 (single isomer, unassigned) [Example 19B] | 2.5 | 10.8 | 49.3 | – | –
CC(C)COC(=O)C(C)(C)NP(=O)(CO[C@H](C)Cn1cnc2c(N)ncnc21)N[C@H](C)C(=O)OC1CCC1 (single isomer, unassigned) [Example 20A] | 5.9 | 17.4 | 98.1 | – | –
CC(C)COC(=O)C(C)(C)NP(=O)(CO[C@H](C)Cn1cnc2c(N)ncnc21)N[C@H](C)C(=O)OC1CCC1 (single isomer, unassigned) [Example 20B] | 1.7 | 5.9 | 71.0 | – | –
CCCOC(=O)C(C)(C)NP(=O)(CO[C@H](C)Cn1cnc2c(N)ncnc21)N[C@H](C)C(=O)OC1CCC1 (single isomer, unassigned) [Example 22A] | 11.6 | 50.9 | 98.2 | – | –
CCCOC(=O)C(C)(C)NP(=O)(CO[C@H](C)Cn1cnc2c(N)ncnc21)N[C@H](C)C(=O)OC1CCC1 (single isomer, unassigned) [Example 22B] | 4.4 | 15.4 | 72.6 | – | –
CCCCOC(=O)C(C)(C)NP(=O)(CO[C@H](C)Cn1cnc2c(N)ncnc21)N[C@H](C)C(=O)OC1CCC1 (single isomer, unassigned) [Example 23B] | 6 | 13.6 | 58.6 | – | –
CCCCCOC(=O)C(C)(C)NP(=O)(CO[C@H](C)Cn1cnc2c(N)ncnc21)N[C@H](C)C(=O)OC1CCCC1 (single isomer, unassigned) [Example 24A] | 3.2 | 30.6 | 97.8 | – | –
CCCCCOC(=O)C(C)(C)NP(=O)(CO[C@H](C)Cn1cnc2c(N)ncnc21)N[C@H](C)C(=O)OC1CCCC1 (single isomer, unassigned) [Example 24B] | 0.9 | 3.9 | 82.7 | – | –
CCCCCOC(=O)[C@@H](C)N(C)P(=O)(CO[C@H](C)Cn1cnc2c(N)ncnc21)NC(C)(C)C(=O)OCCCCC (single isomer, unassigned) [Example 25B] | – | – | 94.4 | 3.6 | 9.6
CCCCCOC(=O)[C@H]1CCCN1P(=O)(CO[C@H](C)Cn1cnc2c(N)ncnc21)NC(C)(C)C(=O)OCCCCC (single isomer, unassigned) [Example 26B] | 4.4 | 19.5 | 92.5 | – | –
C[C@H](Cn1cnc2c(N)ncnc21)OCP(=O)(N[C@H](C)C(=O)OC1CCCC1)NC(C)(C)C(=O)OC1CCCCC1 (single isomer, unassigned) [Example 27B] | 1.6 | 4.7 | 93.5 | – | –
C[C@H](Cn1cnc2c(N)ncnc21)OCP(=O)(N[C@H](C)C(=O)OC1CCCC1)NC(C)(C)C(=O)OC1CCC1 (single isomer, unassigned) [Example 28B] | 2.7 | 3.3 | 90.2 | – | –
